Measured values: paper PMC13128454, “Mutant p53 protein accumulation is selectively targetable by proximity-inducing drugs” (Nature Chemical Biology, 2025)
Like-named read-outs stand apart in the source and are kept apart here.

Experiments:
Assay type in all cases: cell-based
BxPC-3 cells = experiment: CellTiter-Glo cell viability; conditions: BXPC3; for mean_norm (normalized viability): 4 day
How it was run: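 Compound dose series applied to cells plated at roughly 1,500 per well; CellTiter-Glo detection after mixing gives the viability signal.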

[1] = CellTiter-Glo cell viability; conditions: human, read-out: mean_norm (normalized viability)
Description: (§1) Cells were plated in 384-well plates (typically 1,500 cells per well) with varying concentrations of compounds, with a total volume of 50 μl per well. CTG reagent was added (25 μl) to the solutions, mixed and read out using an EnVision 2105 multimode plate reader.

DU145 cells = experiment: CellTiter-Glo cell viability
Description: as §1

HepG2 cells = experiment: CellTiter-Glo cell viability
Description: as §1

Huh7 cells = experiment: CellTiter-Glo cell viability
Description: as §1

LNCaP cells = experiment: CellTiter-Glo cell viability; conditions: for mean_norm (normalized viability): LNCAP, 4 day
Description: as §1

MCF7 cells = experiment: CellTiter-Glo cell viability
Description: as §1

MFE296 cells = experiment: CellTiter-Glo cell viability
Description: as §1

NUGC-3 cells = experiment: CellTiter-Glo cell viability; conditions: NUGC3
Description: as §1

[2] = Homo sapiens, 96 h, 4 day treatment

CC[C@@H]1C(=O)N(C)c2cnc(Nc3ccc(C(=O)NCCOCCOCCOCCOCCC(=O)N4CCC(Nc5cccc6c5cc(C#CCNc5ccc(S(C)(=O)=O)cc5OC)n6CC(F)(F)F)CC4)cc3OC)nc2N1C1CCCC1 [p53-01, PMV6-PEG4-BI2536]
p5301_AUC_to_10uM (BxPC-3 cells): 0.6983
mean_norm (normalized viability) (BxPC-3 cells; Concentration 625): 0.9363
mean_norm (normalized viability) (BxPC-3 cells; Concentration 1250): 0.9354
mean_norm (normalized viability) (BxPC-3 cells; Concentration 2500): 0.8133
mean_norm (normalized viability) (BxPC-3 cells; Concentration 5000): 0.7027
IC50 (BxPC-3 cells; Homo sapiens, BXPC-3, 96 h, 4 day treatment): 8.25 µM
viability at 4 day ([1]; DU145 cells, Concentration 39.0625, 4 day): 104%
viability at 4 day ([1]; DU145 cells, Concentration 78.125, 4 day): 101%
viability at 4 day ([1]; DU145 cells, Concentration 156.25, 4 day): 97.4%
viability at 4 day ([1]; DU145 cells, Concentration 312.5, 4 day): 96.2%
viability at 4 day ([1]; DU145 cells, Concentration 625, 4 day): 97.2%
viability at 4 day ([1]; DU145 cells, Concentration 1250, 4 day): 98.7%
viability at 4 day ([1]; DU145 cells, Concentration 2500, 4 day): 98.2%
viability at 4 day ([1]; DU145 cells, Concentration 5000, 4 day): 91.3%
viability at 4 day ([1]; DU145 cells, Concentration 10000, 4 day): 79.5%
viability at 4 day ([1]; DU145 cells, Concentration 20000, 4 day): 76.4%
viability at 4 day ([1]; Huh7 cells, Concentration 39.0625, 4 day): 110%
viability at 4 day ([1]; Huh7 cells, Concentration 78.125, 4 day): 104%
viability at 4 day ([1]; Huh7 cells, Concentration 156.25, 4 day): 109%
viability at 4 day ([1]; Huh7 cells, Concentration 312.5, 4 day): 104%
viability at 4 day ([1]; Huh7 cells, Concentration 625, 4 day): 108%
viability at 4 day ([1]; Huh7 cells, Concentration 1250, 4 day): 104%
viability at 4 day ([1]; Huh7 cells, Concentration 2500, 4 day): 107%
viability at 4 day ([1]; Huh7 cells, Concentration 5000, 4 day): 100%
viability at 4 day ([1]; Huh7 cells, Concentration 10000, 4 day): 102%
viability at 4 day ([1]; Huh7 cells, Concentration 20000, 4 day): 83.1%
viability at 4 day ([1]; LNCaP cells, LNCAP, Concentration 39.0625, 4 day): 96.3%
viability at 4 day ([1]; LNCaP cells, LNCAP, Concentration 78.125, 4 day): 93%
viability at 4 day ([1]; LNCaP cells, LNCAP, Concentration 156.25, 4 day): 94.9%
viability at 4 day ([1]; LNCaP cells, LNCAP, Concentration 312.5, 4 day): 97.9%
viability at 4 day ([1]; LNCaP cells, LNCAP, Concentration 625, 4 day): 108%
viability at 4 day ([1]; LNCaP cells, LNCAP, Concentration 1250, 4 day): 102%
viability at 4 day ([1]; LNCaP cells, LNCAP, Concentration 2500, 4 day): 87.3%
viability at 4 day ([1]; MCF7 cells, Concentration 1250, 4 day): 88.6%
viability at 4 day ([1]; MCF7 cells, Concentration 2500, 4 day): 64.8%
viability at 4 day ([1]; MCF7 cells, Concentration 5000, 4 day): 49.8%
viability at 4 day ([1]; MCF7 cells, Concentration 10000, 4 day): 36.9%
viability at 4 day ([1]; MCF7 cells, Concentration 20000, 4 day): 29.2%
viability at 4 day ([1]; NUGC-3 cells, NUGC3, Concentration 39.0625, 4 day): 101%
viability at 4 day ([1]; NUGC-3 cells, NUGC3, Concentration 78.125, 4 day): 98%
viability at 4 day ([1]; NUGC-3 cells, NUGC3, Concentration 156.25, 4 day): 103%
viability at 4 day ([1]; NUGC-3 cells, NUGC3, Concentration 312.5, 4 day): 98.2%
viability at 4 day ([1]; NUGC-3 cells, NUGC3, Concentration 625, 4 day): 91.1%
viability at 4 day ([1]; NUGC-3 cells, NUGC3, Concentration 1250, 4 day): 79.9%
viability at 4 day ([1]; NUGC-3 cells, NUGC3, Concentration 2500, 4 day): 53.4%
viability at 4 day ([1]; NUGC-3 cells, NUGC3, Concentration 5000, 4 day): 42.5%
viability at 4 day ([1]; NUGC-3 cells, NUGC3, Concentration 10000, 4 day): 39.3%
viability at 4 day ([1]; NUGC-3 cells, NUGC3, Concentration 20000, 4 day): 32.6%
p5301_AUC_to_10uM (DU145 cells): 0.9088
IC50 (DU145 cells; Homo sapiens, DU-145, 96 h, 4 day treatment): > 20 µM
p5301_AUC_to_10uM (HepG2 cells): 0.9503
mean_norm (normalized viability) (HepG2 cells; Concentration 39.0625, 4 day): 0.9684
mean_norm (normalized viability) (HepG2 cells; Concentration 78.125, 4 day): 0.9673
mean_norm (normalized viability) (HepG2 cells; Concentration 156.25, 4 day): 0.8732
mean_norm (normalized viability) (HepG2 cells; Concentration 312.5, 4 day): 0.9657
mean_norm (normalized viability) (HepG2 cells; Concentration 625, 4 day): 0.8895
mean_norm (normalized viability) (HepG2 cells; Concentration 1250, 4 day): 0.9491
mean_norm (normalized viability) (HepG2 cells; Concentration 2500, 4 day): 0.8943
mean_norm (normalized viability) (HepG2 cells; Concentration 5000, 4 day): 1.008
mean_norm (normalized viability) (HepG2 cells; Concentration 10000, 4 day): 0.9189
mean_norm (normalized viability) (HepG2 cells; Concentration 20000, 4 day): 0.9567
IC50 (HepG2 cells; [2]): > 20 µM
p5301_AUC_to_10uM (Huh7 cells): 1
IC50 (Huh7 cells; Homo sapiens, Huh-7, 96 h, 4 day treatment): > 20 µM
IC50 (LNCaP cells; Homo sapiens, 96 h, LNCaP, 4 day treatment): 14.1 µM
mean_norm (normalized viability) (LNCaP cells; Concentration 5000): 0.7565
mean_norm (normalized viability) (LNCaP cells; Concentration 10000): 0.7384
mean_norm (normalized viability) (LNCaP cells; Concentration 20000): 0.4932
p5301_AUC_to_10uM (LNCaP cells; LNCaP): 0.8069
p5301_AUC_to_10uM (MCF7 cells): 0.5585
mean_norm (normalized viability) (MCF7 cells; Concentration 39.0625, 4 day): 1.014
mean_norm (normalized viability) (MCF7 cells; Concentration 78.125, 4 day): 0.9684
mean_norm (normalized viability) (MCF7 cells; Concentration 156.25, 4 day): 0.9955
mean_norm (normalized viability) (MCF7 cells; Concentration 312.5, 4 day): 1.001
mean_norm (normalized viability) (MCF7 cells; Concentration 625, 4 day): 0.97
IC50 (MCF7 cells; [2]): 2810 nM
p5301_AUC_to_10uM (MFE296 cells): 0.5186
mean_norm (normalized viability) (MFE296 cells; Concentration 39.0625, 4 day): 1.0133
mean_norm (normalized viability) (MFE296 cells; Concentration 78.125, 4 day): 1.079
mean_norm (normalized viability) (MFE296 cells; Concentration 156.25, 4 day): 1.012
mean_norm (normalized viability) (MFE296 cells; Concentration 312.5, 4 day): 1.043
mean_norm (normalized viability) (MFE296 cells; Concentration 625, 4 day): 0.9978
mean_norm (normalized viability) (MFE296 cells; Concentration 1250, 4 day): 0.7559
mean_norm (normalized viability) (MFE296 cells; Concentration 2500, 4 day): 0.6581
mean_norm (normalized viability) (MFE296 cells; Concentration 5000, 4 day): 0.4955
mean_norm (normalized viability) (MFE296 cells; Concentration 10000, 4 day): 0.246
IC50 (MFE296 cells; Homo sapiens, MFE-296, 96 h, 4 day treatment): 4.32 µM
IC50 (NUGC-3 cells; Homo sapiens, NUGC-3, 96 h, 4 day treatment): 1710 nM
p5301_AUC_to_10uM (NUGC-3 cells): 0.5108
